Patent US8158792B2, “Spiropiperidines for use as tryptase inhibitors” (Janssen Pharmaceutica N.V., priority 2007, dated 2012)
Structures can show the parent of a compound that is named as a salt.

Key:
mild asthmatics = conditions: nebulized dry powder, 16 mild asthmatics, compared with placebo, cited from earlier work
human lung tryptase = experiment: β-Tryptase In-Vitro Enzyme Assay; format: biochemical; conditions: human lung tryptase 1 nM, substrate H-D-HHT-Ala-Arg-pNa 500 μM, pH 7.4, room temperature
Protocol: The β-tryptase assay was conducted with human lung tryptase (Cortex Biochem #CP3033) in an aqueous buffer (10 mM Tris, 10 mM Hepes, 150 mM NaCl, 0.1% PEG 8000, pH 7.4) using the chromogenic substrate H-D-HHT-Ala-Arg-pNa. […] Percent inhibition was calculated by comparing the initial reaction velocity of samples without inhibitor to those with inhibitor. The initial reaction velocities were analyzed using Microsoft Excel.

[1] = test system: antigen-induced allergic sheep; experiment: Sheep Efficacy Model (antigen-induced allergic sheep asthma model); format: in vivo; conditions: 30 mg/kg BID oral gavage, two sheep
Protocol: The in vivo efficacy of Compound 3 was evaluated in antigen-induced allergic sheep, which is a well-characterized asthma model (Abraham, W. M. Pulmonary Pharmacol. 1989, 2, 33-40). Compound 3 was administered via oral gavage to two sheep previously shown to be allergic responders to inhaled Ascaris suum antigen (FIG. 1). The compound was given at a dose of 30 mg/kg, BID, on day 1, and again on day 2 at 2 h prior to antigen challenge and then 4 h after antigen challenge. Airway resistance (SRL) was monitored for 8 h post antigen challenge and airway hyper-reactivity to carbachol (PC400) was measured 24 h post antigen challenge.

[2] = test system: guinea pig model of allergic asthma; experiment: Guinea Pig Efficacy Model (OVA allergic asthma); format: in vivo
Protocol: The in vivo efficacy of Compound 3 was evaluated in a guinea pig model of allergic asthma. In this model, guinea pigs were sensitized and challenged with chicken egg ovalbumin (OVA) according to the protocol of N. Smith and F. J. Johnson (Clin. Exp. Allergy 2005, 35, 522-530), with some slight modifications. Guinea pigs were sensitized with 80 mg of OVA and 80 mg of aluminum hydroxide administered intraperitoneally on day 0, then challenged with 0.03% OVA aerosol for 10 minutes on day 14. In the experiment measuring early phase pulmonary response (EAR), guinea pigs were challenged for an additional three minutes with 0.06% OVA aerosol. EAR was measured as enhanced pause (PenH) using BUXCO whole body plethysmography for 10 minutes immediately following the OVA aerosol challenge. The animals were then euthanized and assessed for bronchoalveolar lavage (BAL) immune cell counts 24 hours after aerosol challenge on day 15. Either Compound 3 in doses of 3, 10, and/or 30 mg/kg or vehicle were administered subcutaneously, 1-2 hours before and 4-6 hours after OVA aerosol challenge.

[3] = 3, 10 and 30 mg/kg subcutaneously, 24 hours after OVA aerosol challenge

Structure (SMILES)	IC50 (human lung tryptase)	also measured
NCc1ccc2c(c1)C1(CCN(C(=O)c3ccc(C#Cc4ccccc4)o3)CC1)CO2 (as salt: salt) [Cpd 3, 1-(5-phenylethynyl-furan-2-yl)carbonyl-5′-aminomethyl-spiro[piperidine-4,3′-(2H)-benzo[b]furan]]		melting point: 179 to 181 °C
NC(=O)[C@@H]1CCCN1C(=O)[C@H](CCCN=C(N)N)NC(=O)c1ccc2ccccc2c1O [APC-366]		mean maximum decrease of forced expiratory volume in one second for late airway hyperresponsiveness (mild asthmatics; ρ=0.007): 21%; improvement for the late airway response (mild asthmatics; ρ=0.012): 33%
NCc1ccc2c(c1)C1(CCN(C(=O)c3ccc(C#Cc4ccccc4)o3)CC1)CO2 [Cpd 3, 1-(5-phenylethynyl-furan-2-yl)carbonyl-5′-aminomethyl-spiro[piperidine-4,3′-(2H)-benzo[b]furan]]	3.5 nM	acute early phase response (EP; 0-4 h) post antigen, specific airway resistance (SRL) [1]: did not effect a change; increase in airway hyper-reactivity to carbachol (PC400) at 24 h ([1]; 24 h post antigen challenge): completely blocked; late response (LP; 4-8 h post antigen), specific airway resistance (SRL) ([1]; inhaled Ascaris suum antigen challenge): completely blocked; reduction in BAL eosinophils ([2]; 30 mg/kg subcutaneously, 24 hours after OVA aerosol challenge): 66%; reduction in EAR as measured with whole body plethysmography (in PenH) ([2]; 30 mg/kg subcutaneously, relative to sensitized and challenged guinea pigs treated with vehicle): greater than 93%; eosinophilic BAL cell counts [2, 3]: dose-dependent reduction; total BAL cell counts [2, 3]: dose-dependent reduction
CC(=O)N1CC2(CCN(C(=O)c3ccc(C#Cc4ccccc4)o3)CC2)c2cc(CN)ccc21 [Cpd 339, 1-(5-phenylethynyl-furan-2-yl)carbonyl-1′-methylcarbonyl-5′-aminomethyl-spiro[piperidine-4,3′-(2H)-indole]]	15 nM	
CS(=O)(=O)N1CC2(CCN(C(=O)c3ccc(C#Cc4ccccc4)o3)CC2)c2cc(CN)ccc21 [Cpd 340, 1-(5-phenylethynyl-furan-2-yl)carbonyl-1′-methylsulfonyl-5′-aminomethyl-spiro[piperidine-4,3′-(2H)-indole]]	1.8 nM	
NCc1ccc2c(c1)C1(CCN(C(=O)c3ccc(C#Cc4ccccc4)o3)CC1)CN2S(=O)(=O)c1ccccc1 [Cpd 341, 1-(5-phenylethynyl-furan-2-yl)carbonyl-1′-phenylsulfonyl-5′-aminomethyl-spiro[piperidine-4,3′-(2H)-indole]]	5.7 nM	
NCc1ccc2c(c1)C1(CCN(C(=O)c3ccc(C#Cc4ccccc4)o3)CC1)CN2S(N)(=O)=O [Cpd 342, 1-(5-phenylethynyl-furan-2-yl)carbonyl-1′-aminosulfonyl-5′-aminomethyl-spiro[piperidine-4,3′-(2H)-indole]]	5.2 nM	
COC(=O)CN1CC2(CCN(C(=O)c3ccc(C#Cc4ccccc4)o3)CC2)c2cc(CN)ccc21 [Cpd 343, 1-(5-phenylethynyl-furan-2-yl)carbonyl-1′-[(methoxycarbonyl)methyl]-5′-aminomethyl-spiro[piperidine-4,3′-(2H)-indole]]	23 nM	
COC(=O)c1cccc(S(=O)(=O)N2CC3(CCN(C(=O)c4ccc(C#Cc5ccccc5)o4)CC3)c3cc(CN)ccc32)c1 [Cpd 344, 1-(5-phenylethynyl-furan-2-yl)carbonyl-1′-(3-methoxycarbonyl-phenyl)sulfonyl-5′-aminomethyl-spiro[piperidine-4,3′-(2H)-indole]]	23 nM	
COC(=O)c1ccc(S(=O)(=O)N2CC3(CCN(C(=O)c4ccc(C#Cc5ccccc5)o4)CC3)c3cc(CN)ccc32)o1 [Cpd 345, 1-(5-phenylethynyl-furan-2-yl)carbonyl-1′-(5-methoxycarbonyl-furan-2-yl)sulfonyl-5′-aminomethyl-spiro[piperidine-4,3′-(2H)-indole]]	13 nM	
CCCOc1sc(C(=O)N2CCC3(CC2)CN(S(=O)(=O)O)c2ccc(CN)cc23)c(C)c1Br [Cpd 346, 1-(3-methyl-4-bromo-5-propoxy-thien-2-yl)carbonyl-1′-hydroxysulfonyl-5′-aminomethyl-spiro[piperidine-4,3′-(2H)-indole]]	40 nM	
NCc1ccc2c(c1)C1(CCN(C(=O)c3ccc(C#Cc4ccccc4)o3)CC1)CN2S(=O)(=O)c1csc(C(=O)O)c1 [Cpd 347, 1-(5-phenylethynyl-furan-2-yl)carbonyl-1′-(5-carboxy-thien-3-yl)sulfonyl-5′-aminomethyl-spiro[piperidine-4,3′-(2H)-indole]]	24 nM	
CS(=O)(=O)CS(=O)(=O)N1CC2(CCN(C(=O)c3ccc(C#Cc4ccccc4)o3)CC2)c2cc(CN)ccc21 [Cpd 348, 1-(5-phenylethynyl-furan-2-yl)carbonyl-1′-(methylsulfonylmethyl)sulfonyl-5′-aminomethyl-spiro[piperidine-4,3′-(2H)-indole]]	24 nM	
CNNC(=O)CS(=O)(=O)N1CC2(CCN(C(=O)c3ccc(C#Cc4ccccc4)o3)CC2)c2cc(CN)ccc21 [Cpd 349, 1-(5-phenylethynyl-furan-2-yl)carbonyl-1′-(N′-methylhydrazino-carbonylmethyl)sulfonyl-5′-aminomethyl-spiro[piperidine-4,3′-(2H)-indole]]	16 nM	
CSc1sc(C(=O)N2CCC3(CC2)CN(S(=O)(=O)O)c2ccc(CN)cc23)c2ccccc12 [Cpd 350, 1-(3-methylthio-benzo[c]thien-1-yl)carbonyl-1′-hydroxysulfonyl-5′-aminomethyl-spiro[piperidine-4,3′-(2H)-indole]]	25 nM	
NCc1ccc2c(c1)C1(CCN(C(=O)c3cc(Br)c(Br)s3)CC1)CN2S(=O)(=O)O [Cpd 351, 1-(4,5-dibromo-thien-2-yl)carbonyl-1′-hydroxysulfonyl-5′-aminomethyl-spiro[piperidine-4,3′-(2H)-indole]]	68 nM	

Continued, in another order:

IC50 (human lung tryptase)	Structure (SMILES)	also measured
5300 nM	NCc1ccc2c(c1)C1(CCN(C(=O)c3ccc(Cl)c(Cl)c3)CC1)CS2(=O)=O [Cpd 352, 1-(3,4-dichlorophenyl)carbonyl-5′-aminomethyl-spiro[piperidine-4,3′-(1,1-dioxo-(2H)-benzo[b]thiophene)]]	
37 nM	NCc1ccc2c(c1)C1(CCN(C(=O)c3ccc(Cl)c(Cl)c3)CC1)CS2 [Cpd 353, 1-(3,4-dichlorophenyl)carbonyl-5′-aminomethyl-spiro[piperidine-4,3′-(2H)-benzo[b]thiophene]]	
430 nM	NCc1ccc2c(c1)C1(CCN(C(=O)CC(c3ccccc3)c3ccccc3)CC1)CO2 [Cpd 354, 1-(2,2-diphenylethyl)carbonyl-5′-aminomethyl-spiro[piperidine-4,3′-(2H)-benzo[b]furan]]	
290 nM	NCc1ccc2c(c1)C1(CCN(C(=O)CC3c4ccccc4-c4ccccc43)CC1)CO2 [Cpd 355, 1-(9H-fluoren-9-ylmethyl)carbonyl-5′-aminomethyl-spiro[piperidine-4,3′-(2H)-benzo[b]furan]]	
180 nM	Cc1ccsc1/C=C/C(=O)N1CCC2(CC1)COc1ccc(CN)cc12 [Cpd 356, (E)-1-(3-methyl-thien-2-ylethenyl)carbonyl-5′-aminomethyl-spiro[piperidine-4,3′-(2H)-benzo[b]furan]]	
280 nM	NCc1ccc2c(c1)C1(CCN(C(=O)c3cc(-c4ccc(Cl)cc4)cs3)CC1)CO2 [Cpd 357, 1-[4-(4-chloro-phenyl)-thien-2-yl]carbonyl-5′-aminomethyl-spiro[piperidine-4,3′-(2H)-benzo[b]furan]]	
26 nM	NCc1ccc2c(c1)C1(CCN(C(=O)c3ccc(C#Cc4ccccc4)o3)CC1)CN2S(=O)(=O)c1cccs1 [Cpd 358, 1-(5-phenylethynyl-furan-2-yl)carbonyl-1′-thien-2-ylsulfonyl-5′-aminomethyl-spiro[piperidine-4,3′-(2H)-indole]]	
15 nM	NCc1ccc2c(c1)C1(CCN(C(=O)c3ccc(C#Cc4ccccc4)o3)CC1)CN2S(=O)(=O)c1ccsc1 [Cpd 359, 1-(5-phenylethynyl-furan-2-yl)carbonyl-1′-thien-3-ylsulfonyl-5′-aminomethyl-spiro[piperidine-4,3′-(2H)-indole]]	
